Values of other authors, collected in patent US20080286202A1, “Method of Diagnosing Prodromal Forms of Diseases Associated With Amyloid Deposition” (priority 2004, published 2008).

Details: in vivo

f1 (free level in plasma): 0.06
Structure (SMILES): COc1ccccc1N1CCN(CCN(c2ccccn2)[11C](=O)C2CCCCC2)CC1 [[^11C]WAY-100635]
